Laboratory results reported in ChEMBL document CHEMBL1158451, “Generation of ligand-based pharmacophore model and virtual screening for identification of novel tubulin inhibitors with potent anticancer activity” (J Med Chem, 2009).
Calls of active or inactive are those of the source. No cut-off for these calls is given here.

Tests used:
KB [1] = test: Growth inhibition of human KB cells by methylene blue assay; format: functional, cell-based
[2] = Inhibition of tubulin polymerization
HCT-116 [3] = test: Antiproliferative activity against human HCT116 xenografted tumor histoculture at 1 uM after 48 hrs by hematoxylin staining; format: functional, cell-based
KB [4] = test: Cell cycle arrest in human KB cells assessed as accumulation at G2/M phase at 400 nM using propidium iodide staining by flow cytometry; format: functional, cell-based; conditions: TDE = time-dependent effect
KB [5] = test: Cell cycle arrest in human KB cells assessed as accumulation at sub-G1 phase at 400 nM using propidium iodide staining by flow cytometry; format: functional, cell-based; conditions: TDE = time-dependent effect
MCF7 = test: Antiproliferative activity against human MCF7 cells after incubation for three generations by MTS assay; format: functional, cell-based
HCT-116 [6] = test: Antiproliferative activity against human HCT116 xenografted tumor histoculture at 10uM after 48 hrs by hematoxylin staining; format: functional, cell-based
HCT-116 [7] = test: Antiproliferative activity against human HCT116 xenografted tumor histoculture at 100 uM after 48 hrs by hematoxylin staining; format: functional, cell-based
KB [8] = test: Cell cycle arrest in human KB cells assessed as accumulation at G2/M phase at 800 nM after 24 hrs using propidium iodide staining by flow cytometry; format: functional
KB [9] = test: Cell cycle arrest in human KB cells assessed as loss of accumulation at G0/G1 phase at 400 nM using propidium iodide staining by flow cytometry; format: functional, cell-based; conditions: TDE = time-dependent effect
SF-268 = test: Antiproliferative activity against human SF268 cells after three generation of incubation by MTS assay; format: functional, cell-based
KB [10] = test: Cell cycle arrest in human KB cells assessed as accumulation at G2/M phase after 24 hrs using propidium iodide staining by flow cytometry; format: functional, cell-based
KB [11] = test: Antiproliferative activity against human KB cells after incubation for three generations by MTS assay; format: functional, cell-based
KB [12] = test: Cell cycle arrest in human KB cells assessed as accumulation at G2/M phase at 400 nM after 24 hrs using propidium iodide staining by flow cytometry; format: functional
NCI-H460 = test: Antiproliferative activity against human NCI-H460 cells after incubation for three generations by MTS assay; format: functional, cell-based
Bos taurus = species: Bos taurus; test: (§1) Inhibition of bovine brain tubulin polymerization after 30 mins by […] assay
[13] = as §1; design: species or system Bos taurus
KB [14] = test: Cell cycle arrest in human KB cells assessed as loss of accumulation at G0/G1 phase after 24 hrs using propidium iodide staining by flow cytometry; format: functional, cell-based
[15] = Inhibition of bovine cerebral cortex tubulin polymerization up to 30 mins; design: species or system Bos taurus

Compound | IC50 (KB [1]) [nM] | also measured
COc1ccc2c(C(=O)c3cc(OC)c(OC)c(OC)c3)c(CCCCO)[nH]c2c1 | 6.6 | –
CCOC(=O)Cc1[nH]c2cc(OC)ccc2c1C(=O)c1cc(OC)c(OC)c(OC)c1 | 3.9 | –
COc1ccc2c(C(=O)c3cc(OC)c(OC)c(OC)c3)c(CO)[nH]c2c1 | 1.2 | –
COc1ccc2c(C(=O)c3cc(OC)c(OC)c(OC)c3)cn(C(C)C)c2c1 | 287 | –
COc1ccc2c(C(=O)c3cc(OC)c(OC)c(OC)c3)cn(-c3ccc([N+](=O)[O-])cc3)c2c1 | 290 | –
COc1ccc2c(C(=O)c3cc(OC)c(OC)c(OC)c3)cn(CCN(C)C)c2c1 | 200 | –
CCCCCCc1[nH]c2cc(OC)ccc2c1C(=O)c1cc(OC)c(OC)c(OC)c1 | 37.8 | –
CCCCCn1cc(C(=O)c2cc(OC)c(OC)c(OC)c2)c2ccc(OC)cc21 | 350 | –
COc1ccc2c(C(=O)c3cc(OC)c(OC)c(OC)c3)cn(CCCCCCO)c2c1 | 70 | –
CCCCc1[nH]c2cc(OC)ccc2c1C(=O)c1cc(OC)c(OC)c(OC)c1 | 14.3 | –
CCCn1cc(C(=O)c2cc(OC)c(OC)c(OC)c2)c2ccc(OC)cc21 | 180 | –
CCCc1[nH]c2cc(OC)ccc2c1C(=O)c1cc(OC)c(OC)c(OC)c1 | 11 | –
COc1ccc2c(C(=O)c3cc(OC)c(OC)c(OC)c3)c(CCCCCO)[nH]c2c1 | 57.3 | –
Cc1ccc(C)c(Nc2cc(C)nc(-c3ccccc3O)n2)c1 | 3000 | –
O=C(/C=C/c1ccccc1)c1ccccc1 [CHALCONE] | – | IC50 [2]: 10000 nM
Cc1ccc(CCC(=O)Nc2ncc(Cc3cc(Cl)ccc3Cl)s2)o1 | 187 | Activity (HCT-116 [3]): Active; Activity (KB [4]): tde; Activity (KB [5]): tde; IC50 (MCF7): 236 nM; Activity (HCT-116 [6]): Active; Activity (HCT-116 [7]): Active; Activity (KB [8]): 70.3%; Activity (KB [9]): tde; IC50 (SF-268): 319 nM; Activity (KB [10]): Dose-dependent effect; IC50 (KB [11]): 187 nM; Activity (KB [12]): 55.6%; IC50 (NCI-H460): 285 nM; Activity (Bos taurus): Dose-dependent effect; IC50 [13]: 4400 nM; Activity (KB [14]): Dose-dependent effect
COc1ccc(-n2cc(C(=O)c3cc(OC)c(OC)c(OC)c3)c3ccc(OC)cc32)cc1 | 207 | –
COc1cc2c(c(N)c1OC)C(=O)/C(=C\c1cc(C)c(O)c(C)c1)C2 [INDANOCINE] | – | IC50 [2]: 1700 nM
COC(=O)c1[nH]c2cc(OC)ccc2c1C(=O)c1cc(OC)c(OC)c(OC)c1 | 5.5 | –
COc1ccc2c(C(=O)c3cc(OC)c(OC)c(OC)c3)cn(CCCCN(C)C)c2c1 | 6000 | –
COc1ccc2c(C(=O)c3cc(OC)c(OC)c(OC)c3)cn(Cc3ccncc3)c2c1 | 210 | –
COc1ccc2c(C(=O)c3cc(OC)c(OC)c(OC)c3)c(CCCO)[nH]c2c1 | 92 | –
C1=NNCO1 [OXADIAZOLINE] | – | IC50 [15]: 4500 nM
CCN(CC)CCn1c(C)c(C(=O)c2cc(OC)c(OC)c(OC)c2)c2ccc(OC)cc21 | 288 | –
COc1ccc2c(C(=O)c3cc(OC)c(OC)c(OC)c3)cn(C(=O)N3CCOCC3)c2c1 | 237 | –

Compound | IC50 (KB [1]) [nM] | also measured
CCN(CC)CCn1cc(C(=O)c2cc(OC)c(OC)c(OC)c2)c2ccc(OC)cc21 | 1800 | –
COc1ccc2c(C(=O)c3cc(OC)c(OC)c(OC)c3)cn(CCO)c2c1 | 55 | –
COc1ccc2c(C(=O)c3cc(OC)c(OC)c(OC)c3)cn(CCCCCCN(C)C)c2c1 | 2100 | –
CCCCn1c(C)c(C(=O)c2cc(OC)c(OC)c(OC)c2)c2ccc(OC)cc21 | 346 | –
COc1ccc2c(C(=O)c3cc(OC)c(OC)c(OC)c3)cn(CCN3CCN(c4ccccn4)CC3)c2c1 | 292 | –
COc1ccc2c(C(=O)c3cc(OC)c(OC)c(OC)c3)cn(CCN3CCN(C)CC3)c2c1 | 4100 | –
COc1ccc2c(C(=O)c3cc(OC)c(OC)c(OC)c3)c(CN(C)C)[nH]c2c1 | 49.8 | –
COc1ccc2c(C(=O)c3cc(OC)c(OC)c(OC)c3)c(C)n(CCN3CCCCC3)c2c1 | 222 | –
CCn1cc(C(=O)c2cc(OC)c(OC)c(OC)c2)c2ccc(OC)cc21 | 64 | –
CCOC(=O)n1cc(C(=O)c2cc(OC)c(OC)c(OC)c2)c2ccc(OC)cc21 | 73 | –
COc1ccc2c(C(=O)c3cc(OC)c(OC)c(OC)c3)cn(C)c2c1 | 34 | –
CCCCCCn1cc(C(=O)c2cc(OC)c(OC)c(OC)c2)c2ccc(OC)cc21 | 455 | –
COc1ccc2ccccc2c1-c1cc(C(=O)N/N=C/c2cccs2)[nH]n1 | 5700 | –
COc1ccc2c(C(=O)c3cc(OC)c(OC)c(OC)c3)cn(S(=O)(=O)c3ccccc3)c2c1 | 200 | –
COc1ccc2c(C(=O)c3cc(OC)c(OC)c(OC)c3)cn(CCCN(C)C)c2c1 | 1700 | –
COc1ccc2c(C(=O)c3cc(OC)c(OC)c(OC)c3)cn(CCN3CCC[C@@H]3CO)c2c1 | 500 | –
COc1ccc2c(C(=O)c3cc(OC)c(OC)c(OC)c3)c(C)n(CCN(C)C)c2c1 | 332 | –
COc1ccc2c(C(=O)c3cc(OC)c(OC)c(OC)c3)cn(CCCCO)c2c1 | 75 | –
COc1ccc2c(C(=O)c3cc(OC)c(OC)c(OC)c3)cn(CCN3CCCC3)c2c1 | 406 | –
COc1ccc2c(C(=O)c3cc(OC)c(OC)c(OC)c3)cn(CCN3CCCCC3)c2c1 | 93 | –
COc1ccc2c(C)cc(N/N=C/c3ccccc3O)nc2c1 | 2000 | –
COc1ccc2c(C(=O)c3cc(OC)c(OC)c(OC)c3)cn(CCCCCN(C)C)c2c1 | 1800 | –
COc1ccc2c(C(=O)c3cc(OC)c(OC)c(OC)c3)cn(CCN3CCCCCC3)c2c1 | 280 | –
CCCCCc1[nH]c2cc(OC)ccc2c1C(=O)c1cc(OC)c(OC)c(OC)c1 | 38 | –
